In patent US11377442B2, “Small molecule agonists and antagonists of NR2F6 activity” (ZANDER THERAPEUTICS, INC., priority 2016, dated 2022):
Read-outs that look alike come from different tables or passages of the source.

Key:
Format in all cases: cell-based
[1] = test system: HEK293 pGL4; test: Firefly_pGL signal, cmpd/DMSO (pGL4 control cells); conditions: Homo sapiens
[2] = molecular target: T1, NR2F6 LBD (Homo sapiens, UniProt P10588); test: NR2F6 LBD transient transfection; conditions: LBD
T1 construct: expressed in transfected cells
T1 sequence (P10588 165-393 limits assumed): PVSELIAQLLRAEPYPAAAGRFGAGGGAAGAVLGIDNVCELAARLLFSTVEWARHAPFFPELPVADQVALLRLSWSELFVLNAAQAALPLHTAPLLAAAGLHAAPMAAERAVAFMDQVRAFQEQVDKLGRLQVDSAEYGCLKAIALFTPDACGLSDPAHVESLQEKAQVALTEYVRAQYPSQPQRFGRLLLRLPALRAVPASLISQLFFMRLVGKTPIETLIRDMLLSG
How it was run: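 LBD-transfected cells treated at 40, 10, 2 and 0.5 μM (4 replicates); cytotoxicity measured in parallel, normalized to DMSO (0%) and zero signal (100%). Higher concentrations excluded where signal loss reflected toxicity.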

[3] = molecular target: T2, NR2F6 (Homo sapiens, UniProt P10588); test: NR2F6 agonist screening, Firefly signal cmpd/DMSO
T2 construct: expressed in transfected cells; also transient transfection
T2 sequence (P10588 1-404): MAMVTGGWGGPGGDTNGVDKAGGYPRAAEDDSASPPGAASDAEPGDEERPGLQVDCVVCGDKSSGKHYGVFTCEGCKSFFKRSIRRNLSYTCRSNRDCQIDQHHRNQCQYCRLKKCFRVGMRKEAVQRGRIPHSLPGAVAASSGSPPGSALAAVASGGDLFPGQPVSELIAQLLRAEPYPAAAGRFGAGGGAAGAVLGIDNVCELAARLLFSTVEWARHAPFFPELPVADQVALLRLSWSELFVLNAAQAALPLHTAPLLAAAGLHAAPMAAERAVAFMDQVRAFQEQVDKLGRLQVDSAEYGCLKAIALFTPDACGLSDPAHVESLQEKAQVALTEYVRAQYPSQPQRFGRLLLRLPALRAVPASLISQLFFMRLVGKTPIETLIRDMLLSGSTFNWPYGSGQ

[4] = test system: Renilla; test: Renilla signal in NR2F6 agonist screening, cmpd/DMSO; conditions: Renilla, F4
[5] = read-out: Renilla, F4, cmpd/DMSO (mean)
[6] = 1% FBS, read-out: Renilla, F4, 1% FBS, cmpd/DMSO (mean)
[7] = 10% FBS, read-out: Renilla, F4, 10% FBS, cmpd/DMSO (mean)

- Firefly LBD, cmpd/DMSO (mean) ([2]; 0.5 uM): 1.1
- Firefly LBD, cmpd/DMSO (mean) ([2]; 2 uM): 2.1
- Firefly LBD, cmpd/DMSO (mean) ([2]; 10 uM): 3.2
- Firefly LBD, cmpd/DMSO (mean) ([2]; 40 uM): 0.2
- Firefly F4, cmpd/DMSO (mean) ([3]; 0.5 uM): 1.3
- Firefly F4, cmpd/DMSO (mean) ([3]; 2 uM): 2.3
- Firefly F4, cmpd/DMSO (mean) ([3]; 10 uM): 4.2
- Firefly F4, cmpd/DMSO (mean) ([3]; 40 uM): 0.4
- F4, Firefly/Renilla for S/B(F4) > 3 ([3]; 1% FBS, 10 uM): 3.1
- Firefly, F4/pGL4 for S/B(F4) > 3 ([3]; 1% FBS, 10 uM): 2.6
- F4, Firefly/Renilla for S/B(F4) > 3 ([3]; 10% FBS, 10 uM): 3.3
- Firefly, F4/pGL4 for S/B(F4) > 3 ([3]; 10% FBS, 10 uM): 3.0
- F4, Firefly/Renilla for S/B(F4) > 3 ([3]; 10% FBS, 40 uM): 1.3
- Firefly, F4/pGL4 for S/B(F4) > 3 ([3]; 10% FBS, 40 uM): 2.8
- Firefly, F4, 1% FBS, cmpd/DMSO (mean) ([3]; 1% FBS, 0.5 uM): 1.5
- Firefly, F4, 1% FBS, cmpd/DMSO (mean) ([3]; 1% FBS, 2 uM): 1.6
- Firefly, F4, 1% FBS, cmpd/DMSO (mean) ([3]; 1% FBS, 10 uM): 5.5
- Firefly, F4, 1% FBS, cmpd/DMSO (mean) ([3]; 1% FBS, 40 uM): 0.2
- Firefly, F4, 10% FBS, cmpd/DMSO (mean) ([3]; 10% FBS, 0.5 uM): 1.3
- Firefly, F4, 10% FBS, cmpd/DMSO (mean) ([3]; 10% FBS, 2 uM): 1.4
- Firefly, F4, 10% FBS, cmpd/DMSO (mean) ([3]; 10% FBS, 10 uM): 6.5
- Firefly, F4, 10% FBS, cmpd/DMSO (mean) ([3]; 10% FBS, 40 uM): 3.1
- Activity, cmpd/DMSO ([3]; Table 31): 6.2
SMILES: C[C@@H]1C[C@H](C)CN([C@H]2CS(=O)(=O)C[C@@H]2S(=O)(=O)c2cccs2)C1 [Compound D109]
- fold induction at 0.5 µM ([1]; HEK293, 0.5 uM, pGL4, read-out: Firefly pGL4, cmpd/DMSO (mean)): 1
- fold induction at 2 µM ([1]; HEK293, 2 uM, pGL4, read-out: Firefly pGL4, cmpd/DMSO (mean)): 1.6
- fold induction at 10 µM ([1]; HEK293, 10 uM, pGL4, read-out: Firefly pGL4, cmpd/DMSO (mean)): 3.6
- fold induction at 40 µM ([1]; HEK293, 40 uM, pGL4, read-out: Firefly pGL4, cmpd/DMSO (mean)): 0.5
- fold induction at 0.5 µM ([1]; HEK293, pGL4, 1% FBS, 0.5 uM, read-out: Firefly, pGL4, 1% FBS, cmpd/DMSO (mean)): 1.2
- fold induction at 2 µM ([1]; HEK293, pGL4, 1% FBS, 2 uM, read-out: Firefly, pGL4, 1% FBS, cmpd/DMSO (mean)): 1.3
- fold induction at 10 µM ([1]; HEK293, pGL4, 1% FBS, 10 uM, read-out: Firefly, pGL4, 1% FBS, cmpd/DMSO (mean)): 2.1
- fold induction at 40 µM ([1]; HEK293, pGL4, 1% FBS, 40 uM, read-out: Firefly, pGL4, 1% FBS, cmpd/DMSO (mean)): 1.1
- fold induction at 0.5 µM ([1]; HEK293, pGL4, 10% FBS, 0.5 uM, read-out: Firefly, pGL4, 10% FBS, cmpd/DMSO (mean)): 1.4
- fold induction at 2 µM ([1]; HEK293, pGL4, 10% FBS, 2 uM, read-out: Firefly, pGL4, 10% FBS, cmpd/DMSO (mean)): 1.2
- fold induction at 10 µM ([1]; HEK293, pGL4, 10% FBS, 10 uM, read-out: Firefly, pGL4, 10% FBS, cmpd/DMSO (mean)): 2.2
- fold induction at 40 µM ([1]; HEK293, pGL4, 10% FBS, 40 uM, read-out: Firefly, pGL4, 10% FBS, cmpd/DMSO (mean)): 1.1
- fold induction at 0.5 µM [4, 5]: 1.1
- fold induction at 2 µM [4, 5]: 1.2
- fold induction at 10 µM [4, 5]: 1.6
- fold induction at 40 µM [4, 5]: 0.5
- fold induction at 0.5 µM [4, 6]: 1
- fold induction at 2 µM [4, 6]: 1.3
- fold induction at 10 µM [4, 6]: 1.7
- fold induction at 40 µM [4, 6]: 1.1
- fold induction at 0.5 µM [4, 7]: 1
- fold induction at 2 µM [4, 7]: 1.2
- fold induction at 10 µM [4, 7]: 1.9
- fold induction at 40 µM [4, 7]: 2.4
